Assay results as given in PubChem BioAssay (NCI).
“And” between values parts separate entries of the source, which are not always exact repeats. Identical values can stand only once.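 Results reflect a 48-hour exposure of cells in 96-well plates to compound at five concentrations. The concentration for 50% growth inhibition is given as GI50. TGI denotes the concentration required for complete inhibition of growth.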 The source made the active and inactive calls. Cut-off read from the data, not from the text of the source: active = GI50 below about 0.43 µM; inactive = the rest.

Assays:
Assay in all cases: NCI tumour cell line growth inhibition, 48 h
KM20L2 colon = tested on: KM20L2 colon
DMS 273 small cell lung = tested on: DMS 273 small cell lung
DLD-1 colon = tested on: DLD-1 colon
LXFL 529 NSCLC = tested on: LXFL 529 NSCLC
DMS 114 small cell lung = tested on: DMS 114 small cell lung
HOP-18 NSCLC = tested on: HOP-18 NSCLC
MDA-N = tested on: MDA-N
P388/ADR leukemia = tested on: P388/ADR leukemia
XF 498 CNS = tested on: XF 498 CNS
RXF-631 renal = tested on: RXF-631 renal

| SMILES | TGI (KM20L2 colon) | TGI (DMS 273 small cell lung) | TGI (DLD-1 colon) | TGI (LXFL 529 NSCLC) | TGI (DMS 114 small cell lung) | TGI (HOP-18 NSCLC) | TGI (MDA-N) | TGI (XF 498 CNS) | also measured |
| --- | --- | --- | --- | --- | --- | --- | --- | --- | --- |
| N#C/C(=C/c1ccc([N+](=O)[O-])o1)c1ccccc1 | > 100 µM | > 100 µM | > 100 µM | > 100 µM | > 100 µM | > 100 µM |  |  |  |
| CN(N=O)c1ccc(/C=C/c2ccnc3ccccc23)cc1 |  |  |  |  |  |  | > 100 µM |  |  |
| CO[C@H]1C[C@H](O[C@H]2CC[C@@]3(C)[C@H](CC[C@@H]4[C@@H]3CC[C@]3(C)[C@@H](C5=CC(=O)OC5)CC[C@]43O)C2)O[C@H](C)[C@H]1O |  |  |  |  |  |  | 0.114 µM |  |  |
| COc1oc(C2C/C(=C/C(C)=C/C(C)=C/C(C)=C/c3ccc([N+](=O)[O-])cc3)CO2)c(C)c(=O)c1C (stereo not drawn) |  |  |  |  |  |  | 23.9 µM |  |  |
| C=C1C(C)C2C(Cc3ccccc3)NC(=O)C23C(OC(C)=O)C=CC(C)(O)C(=O)C(C)C/C=C/C3C1O (stereo not drawn) | 99.2 µM and > 500 µM | 73.9 µM and > 500 µM |  | 96.4 µM | 65.6 µM and > 500 µM | 1.09 µM and 0.117 µM | 21.4 µM and > 162 µM | 28.5 µM | GI50 (KM20L2 colon): 0.275 µM; GI50 (DMS 273 small cell lung): 0.05 µM; GI50 (MDA-N): 1.75 µM; TGI (P388/ADR leukemia): 90.3 µM; GI50 (DMS 114 small cell lung): 11.1 µM; GI50 (HOP-18 NSCLC): 0.0404 µM and 0.05 µM |
| CCOC(=O)Nc1cc2c(c(N)n1)N=C(c1ccc(Cl)cc1Cl)CN2 |  |  |  |  |  |  | 18.6 µM |  |  |
| Cc1nc2ccccc2c(=O)n1/N=C(\N=Nc1cc(Cl)ccc1Cl)c1ccc(N(C)C)cc1 | > 100 µM | > 100 µM | > 100 µM | > 100 µM | 93.6 µM | > 100 µM |  | 8.35 µM |  |
| COC(=O)C(=O)C(C(=O)C(=O)Nc1cc(C)ccc1C)c1nc2ccccc2[nH]c1=O (stereo not drawn) |  |  |  |  |  |  | > 100 µM |  |  |
| COc1cc2c(c3oc4c(O)cccc4c(=O)c13)CC(C(C)(O)CCl)O2 (stereo not drawn) |  |  |  |  |  |  | 2.45 µM |  |  |
| C#Cc1c(C)c(/C=C/C(C)=C\C(=O)OC)n(C)c1C | > 100 µM | > 100 µM | > 100 µM | > 100 µM | > 100 µM | > 100 µM |  | > 100 µM |  |
| Nc1ncc(CN2CCCC2)c(-c2ccccc2O)n1 | > 750 µM | > 750 µM | > 750 µM | > 750 µM | > 750 µM | > 750 µM |  | > 750 µM |  |
| CC(C)(c1ccc(C=O)o1)c1ccc(C(C)(C)c2ccc(C=O)o2)o1 | > 100 µM | > 100 µM |  | > 100 µM |  | > 100 µM |  |  | TGI (RXF-631 renal): > 100 µM |
| O=C1CCNC/C1=C\c1ccccc1 | 28.4 µM | 69.1 µM | 48.3 µM | 34.5 µM | 73.4 µM |  |  | 74.7 µM | TGI (RXF-631 renal): > 100 µM |
| CCNC(=O)O/N=C1\CCC2[C@@H]3CC=C4C[C@@H](OC(=O)NCC)CC[C@]4(C)C3CC[C@]12C (stereo partly drawn) | 12.7 µM | 3.54 µM | > 100 µM | 2.2 µM | 1.82 µM | 6.73 µM |  | 0.911 µM | TGI (RXF-631 renal): 17.3 µM |
| N#Cc1c(N)oc2cc3c(C#N)c(N)oc3cc12 | > 100 µM | > 100 µM | > 100 µM | > 100 µM | > 100 µM | > 100 µM |  |  | TGI (RXF-631 renal): > 100 µM |
| CCOC(=O)C(Oc1ccc(OC)c2c1C(=O)CCC2)c1ccccc1 (stereo not drawn) | > 100 µM | > 100 µM | > 100 µM | > 100 µM | > 100 µM |  |  | > 100 µM |  |
| CCn1c(=O)nc2n(-c3ccc(SC)cc3)c3ccccc3nc-2c1=O | > 100 µM | > 100 µM | > 100 µM | > 100 µM | > 100 µM | > 100 µM |  |  | TGI (RXF-631 renal): > 100 µM |
| COc1cc2c(cc1O)CCN[C@@]21CS[C@H]2c3c(OC(C)=O)c(C)c4c(c3C(COC1=O)N1C2C2NC(Cc3cc(C)c(OC)c(O)c32)[C@@H]1O)OCO4 (stereo partly drawn) |  |  |  |  | 4.5 ng/mL |  |  |  | GI50 (DMS 273 small cell lung): 4.5 ng/mL; outcome (RXF-631 renal): inactive; GI50 (DLD-1 colon): 0.000365 ng/mL and 4.5 ng/mL; outcome (LXFL 529 NSCLC): inactive; GI50 (DMS 114 small cell lung): 4.5 ng/mL; outcome (HOP-18 NSCLC): inactive |
| CCOC(=O)C1=C(C)N(NC(=O)Nc2ccccc2)C2(N)N(NC(=O)Nc3ccccc3)C(C)=C(C(=O)OCC)C12C#N (stereo not drawn) | 33.4 µM | 31.3 µM | 34.1 µM | 32.6 µM | 32.9 µM | 34.3 µM |  |  |  |
| CCOC(=O)C(=O)CC(=O)C(Br)C(Br)c1ccc(Cl)cc1 (stereo not drawn) | > 100 µM | > 100 µM | 43.1 µM | 31.9 µM | > 100 µM |  |  |  | TGI (RXF-631 renal): > 100 µM |
| CC1=C(\C=C/C(C)=C/C=C/C(C)=C/C=C/C=C(C)\C=C\C=C(C)/C=C/C2=C(C)CCCC2(C)C)C(C)(C)CCC1 |  |  |  |  |  |  | > 100 µM |  |  |
| CC1=C(C(=S)Nc2ccc(Cl)c(C(=O)OC(C)C)c2)SCCO1 |  |  |  |  |  |  | 39.2 µM |  |  |
| CN(C)NC(=O)NC12CC3CC(CC(C3)C1)C2 | > 100 µM | > 100 µM |  | > 100 µM |  |  |  | > 100 µM |  |
| COc1cc(O)c(C(=O)C2Cc3ccccc32)c(OC)c1 (stereo not drawn) | > 100 µM | > 100 µM | > 100 µM | > 100 µM | 97.2 µM | > 100 µM |  |  | TGI (RXF-631 renal): > 100 µM |
